The record followed here is ChEMBL document CHEMBL5532749, “Synthesis and functional evaluation of proteinogenic amino acid-derived synthetic cannabinoid receptor agonists related to MPP-5F-PICA, MMB-5F-PICA, and MDMB-5F-PICA” (RSC Med Chem, 2024).

The term Emax denotes the maximal effect, on the per cent scale that the assay sets.

What all share (type): functional, cell-based
Assay [1] deals with T1, Cannabinoid receptor 1 (Homo sapiens, UniProt P21554). The experiment in a line: Agonist activity at human CB1 receptor stably transfected in AtT20 cells assessed as maximal efficacy at 30 uM incubated for 60 mins by FLIPR membrane potential assay relative to control. The settings on record: filed as agonist.
The target in assay [2] is T2, Cannabinoid receptor 2 (Homo sapiens, UniProt P34972). The experiment in a line: Agonist activity at human CB2 receptor stably transfected in AtT20 cells incubated for 60 mins by FLIPR membrane potential assay.
Assay [3] deals with T1, Cannabinoid receptor 1. The experiment in a line: Agonist activity at human CB1 receptor stably transfected in AtT20 cells incubated for 60 mins by FLIPR membrane potential assay.
Assay [4] has as its target T2, Cannabinoid receptor 2. Briefly: Agonist activity at human CB2 receptor stably transfected in AtT20 cells assessed as maximal efficacy at 30 uM incubated for 60 mins by FLIPR membrane potential assay relative to control. The settings on record: filed as agonist.
Assay [5] deals with T1, Cannabinoid receptor 1. Briefly: Agonist activity at human CB1 receptor stably transfected in AtT20 cells assessed as maximal efficacy at 10 uM incubated for 60 mins by FLIPR membrane potential assay relative to control.
Assay [6] concerns the target T2, Cannabinoid receptor 2. The experiment in a line: Agonist activity at human CB2 receptor stably transfected in AtT20 cells assessed as maximal efficacy at 10 uM incubated for 60 mins by FLIPR membrane potential assay relative to control.
Assay [7] has as its target T1, Cannabinoid receptor 1. The experiment in a line: Agonist activity at HA-tagged human CB1 receptor stably transfected in AtT20 cells assessed as maximal efficacy at 30 uM incubated for 60 mins by FLIPR membrane potential assay relative to control. The settings on record: filed as agonist.
Assay [8] addresses T2, Cannabinoid receptor 2. The experiment in a line: Agonist activity at HA-tagged human CB2 receptor stably transfected in AtT20 cells incubated for 60 mins by FLIPR membrane potential assay.
The target of assay [9] is T1, Cannabinoid receptor 1. The experiment in a line: Agonist activity at HA-tagged human CB1 receptor stably transfected in AtT20 cells incubated for 60 mins by FLIPR membrane potential assay.
For assay [10], the target named is T2, Cannabinoid receptor 2. Briefly: Agonist activity at HA-tagged human CB2 receptor stably transfected in AtT20 cells assessed as maximal efficacy at 30 uM incubated for 60 mins by FLIPR membrane potential assay relative to control. The settings on record: filed as agonist.

T2 sequence (P34972 whole entry): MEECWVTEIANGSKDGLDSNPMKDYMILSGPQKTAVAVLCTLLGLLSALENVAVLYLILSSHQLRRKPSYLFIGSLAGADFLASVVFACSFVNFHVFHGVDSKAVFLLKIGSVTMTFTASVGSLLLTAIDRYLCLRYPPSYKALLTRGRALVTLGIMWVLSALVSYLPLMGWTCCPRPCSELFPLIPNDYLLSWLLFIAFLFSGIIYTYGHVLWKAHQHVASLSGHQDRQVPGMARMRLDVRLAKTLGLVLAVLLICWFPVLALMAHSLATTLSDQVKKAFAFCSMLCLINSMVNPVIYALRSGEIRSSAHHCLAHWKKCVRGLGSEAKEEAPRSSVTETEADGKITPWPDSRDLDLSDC
T1 sequence (P21554 whole entry): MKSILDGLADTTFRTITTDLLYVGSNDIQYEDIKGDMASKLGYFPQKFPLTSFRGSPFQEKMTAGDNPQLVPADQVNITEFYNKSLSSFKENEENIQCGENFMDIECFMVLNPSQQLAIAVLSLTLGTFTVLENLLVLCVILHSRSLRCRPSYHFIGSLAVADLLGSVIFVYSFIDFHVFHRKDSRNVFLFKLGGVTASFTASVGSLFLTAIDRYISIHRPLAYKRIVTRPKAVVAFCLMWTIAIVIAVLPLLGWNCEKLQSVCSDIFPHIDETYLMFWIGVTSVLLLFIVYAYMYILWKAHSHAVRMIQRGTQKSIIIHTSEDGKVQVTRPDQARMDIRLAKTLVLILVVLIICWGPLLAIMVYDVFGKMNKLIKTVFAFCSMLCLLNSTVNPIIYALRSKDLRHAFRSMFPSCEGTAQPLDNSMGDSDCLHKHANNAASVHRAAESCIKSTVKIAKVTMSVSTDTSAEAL

As for `COC(=O)[C@H](Cc1ccc(O)cc1)NC(=O)c1cn(CCCCCF)c2ccccc12`, the Emax was 135% at Cannabinoid receptor 1 [1] and 98% at Cannabinoid receptor 2 [4]. Moreover, the EC50 at Cannabinoid receptor 2 [2] amounted to 87.7 nM; on Cannabinoid receptor 1 [3] (read-out: EC50) it was 182 nM.
On to `COC(=O)[C@@H](C)NC(=O)c1cn(CCCCCF)c2ccccc12`, for which the maximal response (Emax) at Cannabinoid receptor 1 [1] came to 71%; at Cannabinoid receptor 2 [4], 72%. Moreover, the EC50 at Cannabinoid receptor 2 [2] amounted to 478 nM.
For the compound `COC(=O)[C@@H](Cc1c[nH]c2ccccc12)NC(=O)c1cn(CCCCCF)c2ccccc12`, the Emax amounted to 9% on Cannabinoid receptor 1 [5] and 17% at Cannabinoid receptor 2 [6].
The compound `COC(=O)[C@@H](CCCCN)NC(=O)c1cn(CCCCCF)c2ccccc12` gave an EC50 on Cannabinoid receptor 2 [2] of 1270 nM. The Emax at Cannabinoid receptor 1 [5] (filed as agonist) came to 58%; on Cannabinoid receptor 2 [4], 74%.
`COC(=O)[C@H](CO)NC(=O)c1cn(CCCCCF)c2ccccc12`: the values for the Emax on Cannabinoid receptor 1 [1] and on Cannabinoid receptor 2 [4] were 123% and 41%, respectively. Moreover, the EC50 is 625 nM at Cannabinoid receptor 2 [2] and 200 nM at Cannabinoid receptor 1 [3] (read-out: EC50).
The like results for `COC(=O)[C@@H](Cc1ccccc1)NC(=O)c1cn(CCCCCF)c2ccccc12` were, in that order, 107%, 57%, 586 nM and 441 nM.
The like results for `COC(=O)[C@@H](CCC(N)=O)NC(=O)c1cn(CCCCCF)c2ccccc12` were, in that order, 116%, 76%, 445 nM and 3630 nM.
The like results for `COC(=O)[C@@H](NC(=O)c1cn(CCCCCF)c2ccccc12)[C@@H](C)O` were, in that order, 134%, 60%, 148 nM and 49 nM.
`COC(=O)[C@H](CC(C)C)NC(=O)c1cn(CCCCCF)c2ccccc12`: the Emax on Cannabinoid receptor 1 [1] is 136%; at Cannabinoid receptor 2 [4], 99%. The EC50 on Cannabinoid receptor 2 [2] was determined as 7.16 nM; at Cannabinoid receptor 1 [3] (read-out: EC50), 25.5 nM.
Consider `COC(=O)[C@@H](NC(=O)c1cn(CCCCCF)c2ccccc12)C(C)(C)C`, for which the Emax at Cannabinoid receptor 1 [7] was 110%; at Cannabinoid receptor 2 [10], 94%. The EC50 at Cannabinoid receptor 2 [8] was 7.4 nM; on Cannabinoid receptor 1 [9], 0.45 nM.
With `CC[C@H](C)[C@H](NC(=O)c1cn(CCCCCF)c2ccccc12)C(=O)OC`, the figures for the Emax on Cannabinoid receptor 1 [1] and at Cannabinoid receptor 2 [4] were 145% and 124%, respectively. For the same compound, the EC50 is 19.2 nM at Cannabinoid receptor 2 [2] and 27.6 nM on Cannabinoid receptor 1 [3] (read-out: EC50).
Turning to `COC(=O)[C@H](Cc1ccccc1)NC(=O)c1cn(CCCCCF)c2ccccc12`, the Emax at Cannabinoid receptor 1 [1] came out at 108%; on Cannabinoid receptor 2 [4], 99%. Besides, the figures for the EC50 at Cannabinoid receptor 2 [2], at Cannabinoid receptor 1 [3] (read-out: EC50) and at Cannabinoid receptor 1 [3] (read-out: pEC50 (converted)) were 7.41 nM, 4.63 nM and 4.57 nM, respectively.
Turning to `COC(=O)[C@H](Cc1c[nH]c2ccccc12)NC(=O)c1cn(CCCCCF)c2ccccc12`, the Emax was determined as 34% at Cannabinoid receptor 1 [5] and 37% at Cannabinoid receptor 2 [6].
Regarding `COC(=O)[C@H](NC(=O)c1cn(CCCCCF)c2ccccc12)C(C)C`, the Emax at Cannabinoid receptor 1 [1] was found to be 130%; at Cannabinoid receptor 2 [4] it was 107%. Besides, the results for the EC50 on Cannabinoid receptor 2 [2] and on Cannabinoid receptor 1 [3] (read-out: EC50) were 16.2 nM and 104 nM, respectively.
In the case of `COC(=O)[C@@H](Cc1ccc(O)cc1)NC(=O)c1cn(CCCCCF)c2ccccc12`, the Emax came to 57% at Cannabinoid receptor 1 [5] (filed as agonist) and 40% on Cannabinoid receptor 2 [6] (filed as agonist).
Take `COC(=O)[C@@H](CC(C)C)NC(=O)c1cn(CCCCCF)c2ccccc12`: the results for the Emax on Cannabinoid receptor 1 [1] and on Cannabinoid receptor 2 [4] were 150% and 112%, respectively. Moreover, the EC50 was found to be 53.2 nM on Cannabinoid receptor 2 [2] and 23.9 nM on Cannabinoid receptor 1 [3] (read-out: EC50).
As to `COC(=O)[C@H](C)NC(=O)c1cn(CCCCCF)c2ccccc12`, the Emax on Cannabinoid receptor 1 [1] was determined as 108%; at Cannabinoid receptor 2 [4], 86%. Besides, the EC50 on Cannabinoid receptor 2 [2] amounted to 59.5 nM; at Cannabinoid receptor 1 [3] (read-out: EC50), 78.8 nM.
For `COC(=O)[C@H](CCCCN)NC(=O)c1cn(CCCCCF)c2ccccc12`, the Emax worked out at 12% on Cannabinoid receptor 1 [5] and 4% on Cannabinoid receptor 2 [6].
Consider `COC(=O)[C@H](NC(=O)c1cn(CCCCCF)c2ccccc12)C(C)(C)C`, for which the Emax is 129% at Cannabinoid receptor 1 [1] and 96% at Cannabinoid receptor 2 [4]. Moreover, the EC50 stood at 56.5 nM on Cannabinoid receptor 2 [2] and 16.4 nM at Cannabinoid receptor 1 [3] (read-out: EC50).
The like results for `COC(=O)[C@@H](CCSC)NC(=O)c1cn(CCCCCF)c2ccccc12` were, in that order, 139%, 90%, 95 nM and 206 nM.
The like results for `CC[C@@H](C)[C@@H](NC(=O)c1cn(CCCCCF)c2ccccc12)C(=O)OC` were, in that order, 121%, 107%, 26.8 nM and 33.5 nM.
Consider `COC(=O)[C@H](CCSC)NC(=O)c1cn(CCCCCF)c2ccccc12`, for which the values for the Emax at Cannabinoid receptor 1 [1] and on Cannabinoid receptor 2 [4] were 151% and 81%, respectively. Moreover, the EC50 amounted to 59.6 nM on Cannabinoid receptor 2 [2] and 358 nM on Cannabinoid receptor 1 [3] (read-out: EC50).
As for `COC(=O)[C@@H]1CCCN1C(=O)c1cn(CCCCCF)c2ccccc12`, the Emax on Cannabinoid receptor 1 [1] turned out to be 106%; at Cannabinoid receptor 2 [4] it was 86%. Besides, the EC50 at Cannabinoid receptor 2 [2] worked out at 13.4 nM; at Cannabinoid receptor 1 [3] (read-out: EC50), 20.7 nM.
The like results for `COC(=O)[C@H](NC(=O)c1cn(CCCCCF)c2ccccc12)[C@H](C)O` were, in that order, 105%, 81%, 93.4 nM and 2310 nM.
For `COC(=O)[C@H]1CCCN1C(=O)c1cn(CCCCCF)c2ccccc12`, the Emax at Cannabinoid receptor 1 [5] was found to be 33%; on Cannabinoid receptor 2 [6], 7%.
In turn, `COC(=O)[C@H](CCC(N)=O)NC(=O)c1cn(CCCCCF)c2ccccc12` returned an EC50 at Cannabinoid receptor 2 [2] of 199 nM. The Emax was determined as 94% at Cannabinoid receptor 1 [5] (filed as agonist) and 90% on Cannabinoid receptor 2 [4].
`COC(=O)[C@@H](NC(=O)c1cn(CCCCCF)c2ccccc12)C(C)C`: the figures for the Emax at Cannabinoid receptor 1 [7] and on Cannabinoid receptor 2 [10] were 107% and 94%, respectively. Moreover, the EC50 was 4.6 nM on Cannabinoid receptor 2 [8] and 2.4 nM on Cannabinoid receptor 1 [9].
In the case of `COC(=O)[C@@H](CO)NC(=O)c1cn(CCCCCF)c2ccccc12`, the Emax came to 66% at Cannabinoid receptor 1 [5] (filed as agonist) and 46% at Cannabinoid receptor 2 [6] (filed as agonist).
`COC(=O)CNC(=O)c1cn(CCCCCF)c2ccccc12`: the Emax at Cannabinoid receptor 1 [5] (filed as agonist) was found to be 40%; at Cannabinoid receptor 2 [6], 12%.
